# Earlier results, collected in patent US20250064896A1, “METHODS, COMPOSITIONS AND USES FOR TREATING CANCER BY PROVIDING MEDICATIONS THAT INDUCE TARGETED TUMOR CELL MITOSIS BEFORE PROVIDING CHEMOTHERAPY OR RADIATION AND KITS THEREFOR” (MAISON AMORI OQVPO LLC, priority 2022, published 2025).
# Where two headings read alike, the source gives them in different places.
# Legend:
# [1] = patients randomized to bicalutamide versus placebo
# [2] = tested on: metastatic hormone sensitive prostate cancer (MHSPC); details: for median actuarial freedom from Castrate Resistant Prostate Cancer (CRPC): p=0.04; for overall survival: p=0.2
# [3] = tested on: locally advanced prostate cancer
# [4] = tested on: locally advanced prostate cancer; details: for overall survival at 5 years: P=0.73
# [5] = tested on: locally advanced prostate cancer; details: goserelin 3.6 mg every 4 weeks and flutamide 250 mg tid, 2 months before and concurrent with RT
# [6] = tested on: prostate cancer (salvage setting); details: goserelin provided on the first day of radiation
# [7] = tested on: serum concentrations of LH and testosterone
# testosterone levels [8] = details: week 2 from initiation of leuprolide; injections once every 3 months; advanced prostate cancer
# testosterone levels [9] = tested on: testosterone levels
# [10] = in vivo
# [11] = tested on: metastatic adenocarcinoma of the prostate
# [12] = in vivo; remark: listed apart in the source
# [13] = arm I: irradiation plus goserelin started in the last week of radiation
smiles,measurement,setting,value
CC(O)(CS(=O)(=O)c1ccc(F)cc1)C(=O)Nc1ccc(C#N)c(C(F)(F)F)c1 (centres unmarked) [bicalutamide],erectile dysfunction compared to placebo,[1],non-statistically significant difference
CC(=O)O[C@@]12CO[C@@H]1C[C@H](O)[C@@]1(C)C(=O)[C@H](O)C3=C(C)[C@@H](OC(=O)[C@H](O)[C@@H](NC(=O)OC(C)(C)C)c4ccccc4)C[C@@](O)([C@@H](OC(=O)c4ccccc4)[C@H]21)C3(C)C [docetaxel],overall survival versus LHRH therapy alone,"[2]; docetaxel given at the beginning of LHRH therapy, MHSPC",significantly longer
same,median actuarial freedom from Castrate Resistant Prostate Cancer (CRPC),[2]; docetaxel started 1-6 days from LHRH initiation,51 months
same,overall survival,[2]; docetaxel started 1-6 days from initiation of LHRH agonist,72 months
same,median actuarial freedom from Castrate Resistant Prostate Cancer (CRPC),[2]; docetaxel started >14 days from LHRH initiation,18 months
same,overall survival,[2]; docetaxel started >14 days from initiation of LHRH agonist,57 months
CC(C)C[C@H](NC(=O)[C@@H](COC(C)(C)C)NC(=O)[C@H](Cc1ccc(O)cc1)NC(=O)[C@H](CO)NC(=O)[C@H](Cc1c[nH]c2ccccc12)NC(=O)[C@H](Cc1cnc[nH]1)NC(=O)[C@@H]1CCC(=O)N1)C(=O)N[C@@H](CCCNC(=N)N)C(=O)N1CCC[C@H]1C(=O)NNC(N)=O [goserelin],10-year absolute survival rate,"prostate cancer; arm 1 versus control arm 39%, p=0.002",49%
same,5-year absolute survival rate,prostate cancer; [13],72%
same,9-year absolute survival rate,prostate cancer; [13],62%
same,10-year overall survival,"[3]; combined treatment, radiotherapy alone 39.8%, p=0.0004",58.1%
same,"survival, hormonal therapy added to radiation compared to radiation alone",[3]; external irradiation plus goserelin,survival benefit
same,five-year overall survival,"[3]; irradiation plus goserelin from first day for 3 years, antiandrogen for 1 month, radiotherapy alone 62%, p=0.0002",78%
same,overall survival at 5 years,[4]; 24 months of goserelin after 4 months of goserelin and flutamide with RT,80.0%
same,overall survival between the two treatment arms,[4]; 24 months of goserelin versus no further treatment,not significantly different
same,overall survival at 5 years,[4]; no further treatment after 4 months of goserelin and flutamide with RT,78.5%
same,"survival, combined ADT with RT versus RT alone",[5],no significant difference
same,"survival, ADT in the salvage setting",[6],survival benefit
CCNC(=O)[C@@H]1CCCN1C(=O)[C@H](CCCNC(=N)N)NC(=O)[C@H](CC(C)C)NC(=O)[C@@H](CC(C)C)NC(=O)[C@H](Cc1ccc(O)cc1)NC(=O)[C@H](CO)NC(=O)[C@H](Cc1c[nH]c2ccccc12)NC(=O)[C@H](Cc1c[nH]cn1)NC(=O)[C@@H]1CCC(=O)N1 [leuprolide],duration of elevation of testosterone levels,[7]; after LHRH analogue application,7 days
same,duration of increase in relative LH values,[7]; after LHRH analogue injection,7 days
same,maximum testosterone level,[7]; day 2 after LHRH analogue application,145±13%
same,maximum relative LH value,"[7]; day 2 after LHRH analogue injection, means±standard error, 16 patients with advanced prostatic cancer",345±108%
same,testosterone levels higher compared to baseline,testosterone levels [8],about 50%
same,median testosterone levels remained above castrate levels (0.5 ng/ml) until,testosterone levels [9]; after initiation of leuprolide,21 days
same,median testosterone levels increase from baseline,"testosterone levels [9]; by day 3 after initiation of monthly leuprolide, P<0.001",65%
same,median testosterone level,testosterone levels [9]; day 3 after initiation of leuprolide,6.30 ng/mL
same,"leuprolide blood levels, intranasal versus intravenous route",[10],much lower
C[C@]12CC[C@H]3[C@@H](CCC4=CC(=O)CC[C@@]43C)[C@@H]1CC[C@@H]2O [testosterone],patients with unfavorable subjective and/or objective responses,[11]; 52 patients treated with exogenous testosterone daily,87%
same,"serious morbidity or mortality, seemingly due to the testosterone administration",[11]; eight cases of 52 patients,15%
same,half-life,[12],170 h
